From paper PMC7998250, “Temperate Zone Plant Natural Products—A Novel Resource for Activity against Tropical Parasitic Diseases” (Pharmaceuticals, 2021)

How the values were obtained:
[1] = tested on: L. mexicana r22 promastigotes; assay: EC50 in 700022-resistant L. mexicana (r22) promastigotes; assay type: cell-based; settings: Leishmania mexicana, read-out: EC50 in r22 promastigotes, after 28 weeks of 700022 selection
Description: A 700022-resistant line of L. mexicana (r22) was generated using a previously reported method (Figure S3). […] All leishmanicidal sterols identified were assayed against r22 after 8 weeks of 700022 pressure and cross-resistance was found against all four compounds, each with a similar resistance index of between 4–5 (Figure 6c). Following 28 weeks of selection, the morphology of the r22 promastigotes was compared to that of WT (Figure 6d). […] The body area of both promastigotes and amastigotes was also assessed, noting a small (c 20%) decrease in the body area of r22 parasites compared to WT strains (Figure S3).
L. mexicana parasites were grown in increasing concentrations of 700022 in a stepwise manner, as previously described. […] A dose response assay of the newly selected promastigotes was completed as stated above, with the exception of the seeding density of 1 × 10^5 cells/mL. At this point, the drug pressure was increased to the concentration of the new EC50 value.

[2] = tested on: L. mexicana intramacrophage amastigotes; assay: L. mexicana intramacrophage assay (NanoLuc PEST strain in THP-1); assay type: cell-based, Leishmania mexicana
Source text: Figure S4: Leishmania intramacrophage assays. […] Data represents the mean and standard deviation (n=4). B Average number of parasites per macrophage in the same experiment as A. A Kruskal-Wallis test followed by Dunn’s multiple comparison test was used to determine a significant difference (p<0.05) of each treatment to the untreated control and have been indicated with those being significant marked with an asterix. C Comparing 700022 activity between axenic amastigotes (red) and intramacrophage amastigotes (blue). Concentration–response curves for compound 700022 against: intracellular L. mexicana NanoLuc-PEST-transgenic line (blue), axenic amastigotes of NanoLuc-PEST-transgenic line (red) as well as the human cell lines HepG2 (green) and THP-1 (black). The data for the intracellular L. mexicana NanoLuc-PEST-transgenic line represent one biological repeat of three technical repeats.

[3] = factor, relative to intramacrophage amastigote EC50

## CC1=CC(O)(CC(C)C2(C)CC=C3C4=CCC5C(C)(C)C(O)CCC5(C)C4CCC32C)OC1=O (stereo not shown) [Compound 700022]
[1]
  EC50: 85.6 µM
[2]; Leishmania mexicana, L. mexicana NanoLuc PEST strain in THP-1
  EC50: 10.7 µM
[2]; [3]
  selectivity over HepG2: 2.7
  selectivity over THP-1: 1.6
